Earlier results on one compound are cited in patent EP2387991A1, “Vitamin E succinate stabilized pharmaceutical compositions, methods for the preparation and the use thereof” (Adventrx Pharmaceuticals, Inc., priority 2006, dated 2007).

`CC(=O)O[C@@]12CO[C@@H]1C[C@H](O)[C@@]1(C)C(=O)[C@H](O)C3=C(C)[C@@H](OC(=O)[C@H](O)[C@@H](NC(=O)OC(C)(C)C)c4ccccc4)C[C@@](O)([C@@H](OC(=O)c4ccccc4)[C@H]21)C3(C)C` [Docetaxel, (2R,3S)-N-carboxy-3-phenylisoserine, N-tert-butyl ester, 13-ester with 5β-20-epoxy-1,2α-,4,7β,10β,13α-hexahydroxytax-11-en-9-one 4-acetate 2-benzoate, trihydrate]: the solubility in water result is given as “practically insoluble”.
